Measurements: PubChem BioAssay AID2060625 (Molecular Pharmacology Branch, DTP, NCI, 2025)

System: 186277-243-T-J2-PDC spheroids with HUVEC/MSC, viability
Assay: Anticancer human tumor 186277-243-T-J2-PDC patient-derived colon adenocarcinoma cell line growth inhibition [CLK]
Conditions: for IC50: curve of first compound; for viability, T/C: stronger effect = lower value; active = viability on the fitted dose curve at most 10% of control; inactive = the rest
Outline: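 Multi-cell-type spheroids combined patient-derived tumor cells with HUVEC endothelial cells and human mesenchymal stem cells. Paired agents were dosed in half-log steps down from about clinical Cmax, or from 10 microM where Cmax was unknown.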

[1] = second compound 0.0316 µM, first compound 0.0316 µM
[2] = second compound 0.0316 µM, first compound 0.1 µM
[3] = second compound 0.0316 µM, first compound 0.316 µM
[4] = second compound 0.0316 µM, first compound 1 µM
[5] = second compound 0.0316 µM, first compound 3.16 µM
[6] = second compound 0.0316 µM, first compound 10 µM
[7] = second compound 0.1 µM, first compound 0.0316 µM
[8] = second compound 0.1 µM, first compound 0.1 µM
[9] = second compound 0.1 µM, first compound 0.316 µM
[10] = second compound 0.1 µM, first compound 1 µM
[11] = second compound 0.1 µM, first compound 3.16 µM
[12] = second compound 0.1 µM, first compound 10 µM
[13] = second compound 0.316 µM, first compound 0.0316 µM
[14] = second compound 0.316 µM, first compound 0.1 µM
[15] = second compound 0.316 µM, first compound 0.316 µM
[16] = second compound 0.316 µM, first compound 1 µM
[17] = second compound 0.316 µM, first compound 3.16 µM
[18] = second compound 0.316 µM, first compound 10 µM
[19] = second compound 1 µM, first compound 0.0316 µM
[20] = second compound 1 µM, first compound 0.1 µM
[21] = second compound 1 µM, first compound 0.316 µM
[22] = second compound 1 µM, first compound 1 µM
[23] = second compound 1 µM, first compound 3.16 µM
[24] = second compound 1 µM, first compound 10 µM
[25] = second compound 3.16 µM, first compound 0.0316 µM
[26] = second compound 3.16 µM, first compound 0.1 µM
[27] = second compound 3.16 µM, first compound 0.316 µM
[28] = second compound 3.16 µM, first compound 1 µM
[29] = second compound 3.16 µM, first compound 3.16 µM
[30] = second compound 3.16 µM, first compound 10 µM
[31] = second compound 10 µM, first compound 0.0316 µM
[32] = second compound 10 µM, first compound 0.1 µM
[33] = second compound 10 µM, first compound 0.316 µM
[34] = second compound 10 µM, first compound 1 µM
[35] = second compound 10 µM, first compound 3.16 µM
[36] = second compound 10 µM, first compound 10 µM
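Also: compound exposure lasted seven days before readout.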
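For viability, T/C in this document: 100% = DMSO vehicle control wells.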

C#Cc1c(F)ccc2cc(O)cc(-c3ncc4c(N5CC6CCC(C5)N6)nc(OCC56CCCN5CC(F)C6)nc4c3F)c12 (stereo not given) + CNC(=O)c1ccc(Nc2nc(OC3CCCC3)c3c(-c4ccc5nc(C)oc5c4)c[nH]c3n2)c(OC)c1
active: viability, T/C [10] 10.1% | viability, T/C [11] 9.23% | viability, T/C [12] 7.22% | viability, T/C [15] 9.98% | viability, T/C [16] 7.75% | viability, T/C [17] 6.06% | viability, T/C [18] 5.84% | viability, T/C [21] 6.68% | viability, T/C [22] 8.68% | viability, T/C [23] 7.28% | viability, T/C [24] 3.31% | viability, T/C [26] 11.4% | viability, T/C [27] 6.47% | viability, T/C [28] 5.65% | viability, T/C [29] 6.73% | viability, T/C [30] 4.61% | viability, T/C [32] 9.24% | viability, T/C [33] 6.48% | viability, T/C [34] 5.74% | viability, T/C [35] 6.36% | viability, T/C [36] 3.45%
inactive: viability, T/C [1] 85.1% | viability, T/C [2] 74.1% | viability, T/C [3] 42.3% | viability, T/C [4] 20.4% | viability, T/C [5] 15.4% | viability, T/C [6] 9.35% | viability, T/C [7] 32.4% | viability, T/C [8] 20.2% | viability, T/C [9] 12.4% | viability, T/C [13] 16.6% | viability, T/C [14] 10.6% | viability, T/C [19] 13.1% | viability, T/C [20] 9.92% | viability, T/C [25] 12% | viability, T/C [31] 15.6%
< 31.6 nM: IC50 (second compound 0.1 µM) | IC50 (second compound 0.316 µM) | IC50 (second compound 1 µM) | IC50 (second compound 3.16 µM) | IC50 (second compound 10 µM)
244 nM: IC50 (second compound 0.0316 µM)

C=C(F)C(=O)N1CCN(c2nc(OCC3CCCN3C)nc3c2CCN(c2cccc4cccc(Cl)c24)C3)CC1CC#N (stereo not given) + CNC(=O)c1ccc(Nc2nc(OC3CCCC3)c3c(-c4ccc5nc(C)oc5c4)c[nH]c3n2)c(OC)c1
inactive: viability, T/C [1] 98% | viability, T/C [2] 96.1% | viability, T/C [3] 99.2% | viability, T/C [4] 93.8% | viability, T/C [5] 114% | viability, T/C [7] 68.4% | viability, T/C [8] 70.6% | viability, T/C [9] 69.8% | viability, T/C [10] 61.2% | viability, T/C [11] 65.9% | viability, T/C [13] 45.1% | viability, T/C [14] 48.2% | viability, T/C [15] 42.7% | viability, T/C [16] 46% | viability, T/C [17] 48.1% | viability, T/C [19] 36% | viability, T/C [20] 39.8% | viability, T/C [21] 34.5% | viability, T/C [22] 35.9% | viability, T/C [23] 36.7% | viability, T/C [25] 37.3% | viability, T/C [26] 35.2% | viability, T/C [27] 32.3% | viability, T/C [28] 36.7% | viability, T/C [29] 34.1% | viability, T/C [31] 37.3% | viability, T/C [32] 35.4% | viability, T/C [33] 37.9% | viability, T/C [34] 38% | viability, T/C [35] 27.1%
< 31.6 nM: IC50 (second compound 0.316 µM) | IC50 (second compound 1 µM) | IC50 (second compound 3.16 µM) | IC50 (second compound 10 µM)
5730 nM: IC50 (second compound 0.0316 µM)
active: viability, T/C [6] 3.01% | viability, T/C [12] 2.67% | viability, T/C [18] 0.4% | viability, T/C [24] 1.8% | viability, T/C [30] 0.54% | viability, T/C [36] 0.4%
4220 nM: IC50 (second compound 0.1 µM)

C=CC(=O)N1CCN(c2nc(=O)n(-c3c(C)ccnc3C(C)C)c3nc(-c4c(O)cccc4F)c(F)cc23)C(C)C1 (stereo not given) + CNC(=O)c1ccc(Nc2nc(OC3CCCC3)c3c(-c4ccc5nc(C)oc5c4)c[nH]c3n2)c(OC)c1
< 31.6 nM: IC50 (second compound 1 µM) | IC50 (second compound 3.16 µM) | IC50 (second compound 10 µM)
> 10000 nM: IC50 (second compound 0.0316 µM) | IC50 (second compound 0.1 µM)
2160 nM: IC50 (second compound 0.316 µM)
inactive: viability, T/C [1] 91.3% | viability, T/C [2] 89.6% | viability, T/C [3] 100% | viability, T/C [4] 86.2% | viability, T/C [5] 114% | viability, T/C [6] 110% | viability, T/C [7] 77.3% | viability, T/C [8] 79.4% | viability, T/C [9] 77.7% | viability, T/C [10] 77.8% | viability, T/C [11] 72% | viability, T/C [12] 58.2% | viability, T/C [13] 55.5% | viability, T/C [14] 51.2% | viability, T/C [15] 48% | viability, T/C [16] 57% | viability, T/C [17] 47.4% | viability, T/C [18] 38.5% | viability, T/C [19] 39.4% | viability, T/C [20] 39.4% | viability, T/C [21] 39.3% | viability, T/C [22] 34.7% | viability, T/C [23] 38.3% | viability, T/C [24] 28% | viability, T/C [25] 38.4% | viability, T/C [26] 38.2% | viability, T/C [27] 34.9% | viability, T/C [28] 34.3% | viability, T/C [29] 34.9% | viability, T/C [30] 23.8% | viability, T/C [31] 35.4% | viability, T/C [32] 33.5% | viability, T/C [33] 36.3% | viability, T/C [34] 37.8% | viability, T/C [35] 37.1% | viability, T/C [36] 24.4%

CCCS(=O)(=O)Nc1ccc(F)c(C(=O)c2c[nH]c3ncc(-c4ccc(Cl)cc4)cc23)c1F + CNC(=O)c1ccc(Nc2nc(OC3CCCC3)c3c(-c4ccc5nc(C)oc5c4)c[nH]c3n2)c(OC)c1
inactive: viability, T/C [1] 105% | viability, T/C [2] 101% | viability, T/C [3] 98.5% | viability, T/C [4] 110% | viability, T/C [5] 103% | viability, T/C [6] 78.8% | viability, T/C [7] 77% | viability, T/C [8] 77.5% | viability, T/C [9] 73.7% | viability, T/C [10] 92.5% | viability, T/C [11] 79.2% | viability, T/C [12] 36.7% | viability, T/C [13] 50.8% | viability, T/C [14] 53% | viability, T/C [15] 58.7% | viability, T/C [16] 63.6% | viability, T/C [17] 51.7% | viability, T/C [18] 25.9% | viability, T/C [19] 38.9% | viability, T/C [20] 38.2% | viability, T/C [21] 39.6% | viability, T/C [22] 44.6% | viability, T/C [23] 36.4% | viability, T/C [24] 27.3% | viability, T/C [25] 33.2% | viability, T/C [26] 37.9% | viability, T/C [27] 37.9% | viability, T/C [28] 37.1% | viability, T/C [29] 33.3% | viability, T/C [30] 21.6% | viability, T/C [31] 37.4% | viability, T/C [32] 39.2% | viability, T/C [33] 36.6% | viability, T/C [34] 34.8% | viability, T/C [35] 31.6% | viability, T/C [36] 24.5%
6980 nM: IC50 (second compound 0.1 µM)
> 10000 nM: IC50 (second compound 0.0316 µM)
< 31.6 nM: IC50 (second compound 1 µM) | IC50 (second compound 3.16 µM) | IC50 (second compound 10 µM)
3620 nM: IC50 (second compound 0.316 µM)

COC1C=CCC(C)C(C)S(=O)(=O)NC(=O)c2ccc3c(c2)N(CC2CCC21)CC1(CCCc2cc(Cl)ccc21)CO3 (stereo not given) + CNC(=O)c1ccc(Nc2nc(OC3CCCC3)c3c(-c4ccc5nc(C)oc5c4)c[nH]c3n2)c(OC)c1
< 31.6 nM: IC50 (second compound 0.316 µM) | IC50 (second compound 1 µM) | IC50 (second compound 3.16 µM) | IC50 (second compound 10 µM)
90.1 nM: IC50 (second compound 0.1 µM)
3550 nM: IC50 (second compound 0.0316 µM)
inactive: viability, T/C [1] 101% | viability, T/C [2] 101% | viability, T/C [3] 103% | viability, T/C [4] 83% | viability, T/C [5] 55.9% | viability, T/C [7] 64% | viability, T/C [8] 50.2% | viability, T/C [9] 29.8% | viability, T/C [10] 19.8% | viability, T/C [13] 39.9% | viability, T/C [14] 32% | viability, T/C [15] 19.9% | viability, T/C [16] 12.5% | viability, T/C [19] 30.1% | viability, T/C [20] 23.2% | viability, T/C [21] 14.7% | viability, T/C [25] 31.5% | viability, T/C [26] 27% | viability, T/C [27] 17.6% | viability, T/C [28] 10.1% | viability, T/C [31] 36.1% | viability, T/C [32] 25.4% | viability, T/C [33] 20.5% | viability, T/C [34] 11.9%
active: viability, T/C [6] 4.26% | viability, T/C [11] 9.64% | viability, T/C [12] 3.08% | viability, T/C [17] 6.42% | viability, T/C [18] 2.78% | viability, T/C [22] 10.7% | viability, T/C [23] 5.35% | viability, T/C [24] 4.55% | viability, T/C [29] 6.79% | viability, T/C [30] 2.91% | viability, T/C [35] 5.93% | viability, T/C [36] 2.8%
